ED50 data for one compound are collected here from EP0141884A1, “Novel phenylpiperazine derivatives, process for preparing them and therapeutic compositions containing them” (JUSTE, S.A. QUIMICO-FARMACEUTICA, priority 1983, dated 1985).

This test relates to female Swiss mice. Nature of the test: Analgesic activity, writhing test (2-phenyl-1,4-benzoquinone as nociceptive agent). In kind it is in vivo. The following applies: Mus musculus, po, 1 h, Table 1, oral route one hour before i.p. 0.02% 2-phenyl 1-4 benzoquinone, dose reducing writhes by 50%. As for the experimental part:
The studies of analgesic activity for these compounds have been carried out over 2,178 mice by using the "writhing test" method. 2-Phenylbenzoquinone was used as nociceptive agent and the material under test was administered by the oral route. In all the cases the ED50, ED16 and ED84 (minimum dose for each product which reduces the writhes by 50, 16 and 84% respectively) were calculated, as well as the 95% confidence limits for the ED50. The oral acute toxicity study (LD50 determination) has been performed using 770 Swiss mice (half males and half females) weighing 18-22 g.
A slight modification of the method described by Hendershot and Forshait J. Pharmacol. Exp. Ther. 125, 237 (1959) which employs as nociceptive agent a 0.02% hydroalcoholic solution of 2-phenyl 1-4 benzoquinone, was used. 0.2 ml Of this solution was administered by the i.p. route at a constant temperature of 37° C. The administration of this substance produced in the animals abdominal writhes which were easy to count. The animals used were female Swiss mice of weight 20 + 2 g. […] The value of ED50 was calculated according to the method of Litchfield and Wilcoxon J. Pharmacol. Exp. Ther. 99, 96 (1949).
For orientation: An intraperitoneal irritant provokes the stretching counted in writhing tests.

SMILES strings stand for the structures.

Broadly, the ED50 is the midpoint of the dose-response relation. High values mean weaker potency, low ones greater potency. Compound `CC(C)Cc1ccc(C(C)C(=O)O)cc1` (stereo not shown) [2(4-isobutylphenyl) propionic acid, reference compound] gave an ED50 of 4.21 mg/kg.
